Measured values: patent publication US11572590B2, “Methods for evaluating tumor cell spheroids using 3D microfluidic cell culture device” (Dana-Farber Cancer Institute, Inc., priority 2017, dated 2023)
Read-outs that look alike come from different tables or passages of the source.

Columns and labels:
Experiment in all cases: SelectScreen Kinase Profiling, single point inhibition and IC50 for off-target kinases
Format in all cases: biochemical
[1] = target: off-target kinases (Homo sapiens, UniProt P36888, D835Y); settings: FLT3 D835Y, ATP Km app, ZLYTE
[2] = target: off-target kinases (Homo sapiens, UniProt P42336); settings: PIK3CA/PIK3R1 (p110 alpha/p85 alpha); Cmpd1 1000 μM; ATP Km app; Adapta
[3] = target: T1, off-target kinases (Homo sapiens, UniProt P52564, S207E/T211E); settings: MAP2K6 (MKK6) S207E T211E (mutant), LanthaScreen Binding
T1 sequence (P52564 1-334 S207E/T211E): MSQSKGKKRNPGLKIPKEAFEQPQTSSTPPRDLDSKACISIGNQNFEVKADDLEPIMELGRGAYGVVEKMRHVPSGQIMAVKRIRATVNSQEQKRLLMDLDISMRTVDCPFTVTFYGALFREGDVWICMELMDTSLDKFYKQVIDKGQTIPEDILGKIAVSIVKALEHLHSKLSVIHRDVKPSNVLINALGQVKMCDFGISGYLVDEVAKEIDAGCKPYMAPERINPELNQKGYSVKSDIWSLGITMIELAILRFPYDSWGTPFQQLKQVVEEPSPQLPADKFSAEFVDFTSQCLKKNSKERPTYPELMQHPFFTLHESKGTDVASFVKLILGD

[4] = target: T2, off-target kinases (Homo sapiens, UniProt Q9UF33); settings: EPHA6, LanthaScreen Binding
T2 sequence (Q9UF33 23-1036): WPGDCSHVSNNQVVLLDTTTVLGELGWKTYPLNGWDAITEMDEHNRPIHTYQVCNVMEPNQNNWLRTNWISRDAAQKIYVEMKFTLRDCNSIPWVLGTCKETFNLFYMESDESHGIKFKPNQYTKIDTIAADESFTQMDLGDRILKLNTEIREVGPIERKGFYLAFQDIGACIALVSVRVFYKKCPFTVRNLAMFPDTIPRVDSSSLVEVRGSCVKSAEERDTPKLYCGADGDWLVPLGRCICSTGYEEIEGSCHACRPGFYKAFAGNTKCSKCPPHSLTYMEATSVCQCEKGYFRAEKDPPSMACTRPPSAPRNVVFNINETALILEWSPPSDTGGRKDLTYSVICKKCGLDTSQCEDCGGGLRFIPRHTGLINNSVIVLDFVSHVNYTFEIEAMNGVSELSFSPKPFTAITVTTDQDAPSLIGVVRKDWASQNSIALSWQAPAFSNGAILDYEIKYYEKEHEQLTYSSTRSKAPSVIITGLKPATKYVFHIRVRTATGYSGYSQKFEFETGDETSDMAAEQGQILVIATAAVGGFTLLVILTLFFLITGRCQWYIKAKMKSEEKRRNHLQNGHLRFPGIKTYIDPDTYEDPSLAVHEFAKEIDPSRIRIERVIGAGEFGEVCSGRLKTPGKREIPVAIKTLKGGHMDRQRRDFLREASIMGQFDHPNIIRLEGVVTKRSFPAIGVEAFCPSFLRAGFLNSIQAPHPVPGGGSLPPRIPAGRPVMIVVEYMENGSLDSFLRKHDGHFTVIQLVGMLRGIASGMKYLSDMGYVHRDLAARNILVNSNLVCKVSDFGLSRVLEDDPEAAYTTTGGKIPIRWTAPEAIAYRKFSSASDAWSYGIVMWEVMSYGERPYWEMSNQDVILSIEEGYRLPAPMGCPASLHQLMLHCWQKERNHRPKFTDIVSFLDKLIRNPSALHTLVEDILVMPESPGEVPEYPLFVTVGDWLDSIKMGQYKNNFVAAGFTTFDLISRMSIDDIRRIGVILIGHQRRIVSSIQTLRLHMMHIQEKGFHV

[5] = target: off-target kinases (Homo sapiens, UniProt Q15303); settings: ERBB4 (HER4), ZLYTE, ATP Km app
Sequence of off-target kinases (Homo sapiens, UniProt Q15303) (Q15303 26-1308): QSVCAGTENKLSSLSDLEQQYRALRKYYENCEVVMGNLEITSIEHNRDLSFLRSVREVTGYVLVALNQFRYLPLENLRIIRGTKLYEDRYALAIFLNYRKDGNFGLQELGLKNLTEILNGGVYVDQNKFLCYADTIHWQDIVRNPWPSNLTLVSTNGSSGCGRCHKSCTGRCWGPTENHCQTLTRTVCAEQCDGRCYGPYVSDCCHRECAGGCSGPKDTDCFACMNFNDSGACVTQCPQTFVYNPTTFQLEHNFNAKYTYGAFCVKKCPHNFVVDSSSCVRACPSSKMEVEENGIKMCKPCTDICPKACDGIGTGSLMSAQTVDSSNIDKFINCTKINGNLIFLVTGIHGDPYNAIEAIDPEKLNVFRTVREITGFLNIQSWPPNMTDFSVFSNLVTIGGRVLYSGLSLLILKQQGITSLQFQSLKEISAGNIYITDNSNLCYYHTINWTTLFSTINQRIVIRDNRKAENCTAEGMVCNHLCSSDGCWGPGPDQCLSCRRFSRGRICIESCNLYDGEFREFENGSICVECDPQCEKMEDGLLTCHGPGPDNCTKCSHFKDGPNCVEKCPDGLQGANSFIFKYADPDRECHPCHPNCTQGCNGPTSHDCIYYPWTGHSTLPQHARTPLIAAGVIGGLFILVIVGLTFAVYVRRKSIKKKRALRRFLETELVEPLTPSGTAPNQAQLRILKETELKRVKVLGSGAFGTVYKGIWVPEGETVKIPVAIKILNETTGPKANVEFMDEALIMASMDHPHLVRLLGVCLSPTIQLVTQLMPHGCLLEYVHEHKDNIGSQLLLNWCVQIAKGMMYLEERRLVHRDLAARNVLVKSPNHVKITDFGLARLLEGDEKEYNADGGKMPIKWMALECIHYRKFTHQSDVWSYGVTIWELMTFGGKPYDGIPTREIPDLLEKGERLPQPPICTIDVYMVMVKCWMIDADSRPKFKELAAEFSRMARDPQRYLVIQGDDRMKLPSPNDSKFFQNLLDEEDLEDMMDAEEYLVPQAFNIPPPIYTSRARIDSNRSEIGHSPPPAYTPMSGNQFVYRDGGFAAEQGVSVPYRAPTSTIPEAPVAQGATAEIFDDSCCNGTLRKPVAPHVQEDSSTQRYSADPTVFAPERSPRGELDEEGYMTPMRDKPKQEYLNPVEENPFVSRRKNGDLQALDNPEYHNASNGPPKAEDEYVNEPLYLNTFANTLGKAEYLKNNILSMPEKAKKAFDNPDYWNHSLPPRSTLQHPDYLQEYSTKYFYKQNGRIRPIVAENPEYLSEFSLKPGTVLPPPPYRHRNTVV

Sequence of off-target kinases (Homo sapiens, UniProt P42336) (P42336 whole entry): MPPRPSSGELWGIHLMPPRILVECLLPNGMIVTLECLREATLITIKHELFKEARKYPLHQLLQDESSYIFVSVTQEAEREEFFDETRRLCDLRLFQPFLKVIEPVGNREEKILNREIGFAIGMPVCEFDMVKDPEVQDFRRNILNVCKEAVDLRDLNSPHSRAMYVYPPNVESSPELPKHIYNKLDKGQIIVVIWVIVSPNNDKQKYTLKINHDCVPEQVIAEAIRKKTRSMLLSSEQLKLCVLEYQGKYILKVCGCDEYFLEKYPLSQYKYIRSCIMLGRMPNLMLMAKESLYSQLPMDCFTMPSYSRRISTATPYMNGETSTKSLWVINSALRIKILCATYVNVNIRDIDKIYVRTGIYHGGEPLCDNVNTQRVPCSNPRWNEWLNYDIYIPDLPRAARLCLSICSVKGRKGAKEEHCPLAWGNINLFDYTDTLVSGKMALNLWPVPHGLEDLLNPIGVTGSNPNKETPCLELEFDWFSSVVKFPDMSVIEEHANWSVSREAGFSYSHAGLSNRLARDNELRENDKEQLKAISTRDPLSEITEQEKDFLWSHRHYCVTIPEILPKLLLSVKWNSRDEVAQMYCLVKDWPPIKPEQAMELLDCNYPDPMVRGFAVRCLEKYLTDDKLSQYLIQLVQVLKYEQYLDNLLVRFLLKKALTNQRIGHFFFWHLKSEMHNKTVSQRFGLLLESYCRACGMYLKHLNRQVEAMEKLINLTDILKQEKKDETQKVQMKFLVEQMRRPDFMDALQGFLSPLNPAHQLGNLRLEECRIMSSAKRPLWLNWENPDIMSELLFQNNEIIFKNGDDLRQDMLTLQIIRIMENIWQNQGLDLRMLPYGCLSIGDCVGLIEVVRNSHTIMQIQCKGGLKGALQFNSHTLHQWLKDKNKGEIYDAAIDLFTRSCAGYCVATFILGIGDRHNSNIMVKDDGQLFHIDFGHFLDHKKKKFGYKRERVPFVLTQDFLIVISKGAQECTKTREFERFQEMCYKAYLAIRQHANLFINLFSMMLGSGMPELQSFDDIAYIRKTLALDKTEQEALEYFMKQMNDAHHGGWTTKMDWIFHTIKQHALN

Compound `N#Cc1cc(-c2ncnc(Nc3ccc(N4CCN(C5COC5)CC4)cc3)n2)ccc1OC1CCOCC1` [Compound 1, 5-(4-((4-(4-(oxetan-3-yl)piperazin-1-yl)phenyl)amino)-1,3,5-triazin-2-yl)-2-((tetrahydro-2H-pyran-4-yl)oxy)benzonitrile] has an inhibition ([1]; read-out: % Inhibition 1) of 83%, an inhibition ([1]; read-out: % Inhibition 2) of 81% and an inhibition ([1]; read-out: % Inhibition Avg) of 82%. For the same compound, the “% Inhibition 1” value [2] was −5%, the “% Inhibition 2” value [2] was −4% and the “% Inhibition Avg” value [2] was −5%. It also gave an inhibition ([3]; read-out: % Inhibition 1) of 5%, an inhibition ([3]; read-out: % Inhibition 2) of 5% and an inhibition ([3]; read-out: % Inhibition Avg) of 5%. The inhibition ([4]; read-out: % Inhibition 1) was 9%, the inhibition ([4]; read-out: % Inhibition 2) was 20% and the inhibition ([4]; read-out: % Inhibition Avg) was 14%. For the same compound, the inhibition ([5]; read-out: % Inhibition 1) was 8%, the inhibition ([5]; read-out: % Inhibition 2) was 5% and the inhibition ([5]; read-out: % Inhibition Avg) was 6%.
